{"source": "patent US20250387385A1", "about": "“TREATMENT FOR GLOMERULAR DISEASES” (ZYDUS Lifesciences Limited, priority 2022, published 2025)", "key": {"doxorubicin treated mice": {"system": "doxorubicin treated mice", "assay": "Doxorubicin-induced glomerulosclerosis in male Balb/c mice", "format": "in vivo", "settings": "reduction against doxorubicin treated animals, 24 h urine, oral, two weeks, formula (Ia) 15 mg/kg, Fimasartan 15 mg/kg", "method": "Male Balb/c mice were treated with doxorubicin (10 mg/kg, IV). After 5 weeks of treatment, mice were randomized based on protein excretion urine into four groups: Doxorubicin, compound of formula (Ia) (15 mg/kg) and combination of compound of formula (Ia) (15 mg/kg) and Fimasartan (15 mg/kg) by oral route. The treatment continued for two weeks. These mice kept in metabolic cage and 24 h urine protein excretion was measured."}, "hemoglobin": {"system": "hemoglobin", "settings": "clinical trials; reference 11; cited from earlier work"}, "BSA treated mice": {"system": "BSA treated mice", "assay": "Cationic bovine serum albumin (cBSA) induced nephritis in male C57 mice", "format": "in vivo", "settings": "reduction against BSA treated mice, 24 h urine on 11th day, oral, 10 days, formula (Ia) 15 mg/kg, Iptacopan 20 mg/kg BID", "method": "Male C57 mice were treated with bovine serum albumin (BSA) at 2, 4, 6, 8 and 10 mg/kg on day 1, 2, 3, 4, and 5 days by intraperitoneal route, respectively. The BSA at 10 mg/kg was treated for next 5 days. On the same day, mice were treated with either vehicle/compound of formula (Ia) (15 mg/kg) and combination of compound of formula (Ia) (15 mg/kg) and Iptacopan (20 mg/kg, BID) by oral route and continued for 10 days. On 11th day mice kept in metabolic cage and 24 h urine protein excretion was measured."}, "ischemia condition": {"system": "ischemia condition", "settings": "reference 12, cited from earlier work"}, "HIF": {"system": "HIF", "settings": "animal model of anemia; reference 10; cited from earlier work"}, "LPS treated mice": {"system": "LPS treated mice", "assay": "LPS-induced nephritis in C57 mice", "format": "in vivo", "settings": "serum 24 h after LPS, oral, formula (Ia) 15 mg/kg, Iptacopan 20 mg/kg twice a day; for Serum creatinine (reduction): reduction against LPS treated mice; for Serum urea (reduction): reduction compared with LPS treated mice", "method": "Single dose of lipopolysachharide (LPS)-induced acute nephritis was generated in C57 mice and the effect of compound of formula (Ia) and combination as shown below. Male C57 mice were treated with vehicle/compound of formula (Ia) (15 mg/kg) and combination of compound of formula (Ia) (15 mg/kg) and Iptacopan (20 mg/kg, twice a day) by oral route. These mice were bled after 24 h of LPS treatment and serum was obtained. The creatinine and urea levels were measured in the serum."}, "db/db mice": {"system": "db/db mice", "assay": "Diabetes induced renal dysfunction in db/db mice", "format": "in vivo", "settings": "one kidney removed, 15 mg/kg for eight weeks; for Urine microalbumin (reduction): reduction against diabetic mice", "method": "For inducing diabetes-induced renal dysfunction, one kidney was removed from male db/db mice and they were treated with compound of formula (Ia) and combination for 8 weeks. At the end of treatment, renal dysfunction was estimated. Histological change in renal disease was also accessed with biochemical changes in serum and urine. Male db/db mice were randomized and were treated with compound of formula (Ia) (15 mg/kg) for eight weeks. At the end of treatment serum creatinine, serum urea and urine microalbumin was measured."}, "5/6 nephrectomized rat": {"system": "5/6 nephrectomized rat", "assay": "5/6 nephrectomy induced renal dysfunction in male SD rats", "format": "in vivo", "settings": "5/6 nephrectomized SD rats, 15 mg/kg for four weeks", "method": "Male SD rats will be operated for 5/6 nephrectomy to induce the focal segmental glomerulosclerosis. After a week of recovery, animals were treated with compound of formula (Ia). The randomized rats were treated with compound of formula (Ia) (15 mg/kg) for four weeks. At the end of treatment serum creatinine, serum urea and urine microalbumin was measured."}, "[1]": {"settings": "listed as compound of formula (Ia)"}, "[2]": {"settings": "listed as Compound of formula (Ia)"}}, "data": [{"smiles": "O=C(O)CNC(=O)c1c(O)c2ccccc2n(OCC2CC2)c1=O", "note": "[Formula (Ia), Desidustat]", "values": [{"measurement": "Urine total protein (reduction)", "setting": "doxorubicin treated mice", "result": "47.8 ± 5.8", "unit": "%"}, {"measurement": "Urine total protein (reduction)", "setting": "doxorubicin treated mice; [1]", "result": "47.8±5.8", "unit": "%"}, {"measurement": "hemoglobin", "setting": "hemoglobin", "result": "improves hemoglobin"}, {"measurement": "Urine total protein (reduction)", "setting": "BSA treated mice", "result": "40.1 ± 7.6", "unit": "%"}, {"measurement": "Urine total protein (reduction)", "setting": "BSA treated mice; [2]", "result": "40.1±7.6", "unit": "%"}, {"measurement": "IL-1β levels", "setting": "ischemia condition; ischemia condition", "result": "reduced"}, {"measurement": "IL-6 levels", "setting": "ischemia condition; ischemia condition", "result": "reduced"}, {"measurement": "MDA", "setting": "ischemia condition; oxidative stress", "result": "decreases"}, {"measurement": "SOD", "setting": "ischemia condition; oxidative stress", "result": "decreases"}, {"measurement": "HIF stabilisation", "setting": "HIF", "result": "stabilizes HIF"}, {"measurement": "erythropoiesis", "setting": "HIF", "result": "induces erythropoiesis"}, {"measurement": "Serum creatinine (reduction)", "setting": "LPS treated mice", "result": "34.1 ± 5.2", "unit": "%"}, {"measurement": "Serum creatinine (reduction)", "setting": "LPS treated mice; [1]", "result": "34.1±5.2", "unit": "%"}, {"measurement": "Serum urea (reduction)", "setting": "LPS treated mice", "result": "44.9 ± 5.2", "unit": "%"}, {"measurement": "Serum urea (reduction)", "setting": "LPS treated mice; [1]", "result": "44.9 ± 5.2", "unit": "%"}, {"measurement": "Serum creatinine (reduction)", "setting": "db/db mice", "result": "28.4 ± 4.4", "unit": "%"}, {"measurement": "Serum urea (reduction)", "setting": "db/db mice", "result": "25.8 ± 4.8", "unit": "%"}, {"measurement": "Serum creatinine (reduction)", "setting": "db/db mice; [2]", "result": "28.4±4.4", "unit": "%"}, {"measurement": "Serum urea (reduction)", "setting": "db/db mice; [2]", "result": "25.8±4.8", "unit": "%"}, {"measurement": "Urine microalbumin (reduction)", "setting": "db/db mice", "result": "50.2 ± 3.2", "unit": "%"}, {"measurement": "Urine microalbumin (reduction)", "setting": "db/db mice; [2]", "result": "50.2±3.2", "unit": "%"}, {"measurement": "Microalbumin (reduction of urinary excretion)", "setting": "5/6 nephrectomized rat", "result": "35.9 ± 12.0", "unit": "%"}, {"measurement": "Serum creatinine (reduction)", "setting": "5/6 nephrectomized rat", "result": "14.9 ± 3.2", "unit": "%"}, {"measurement": "Serum urea (reduction)", "setting": "5/6 nephrectomized rat", "result": "15.9 ± 8.8", "unit": "%"}, {"measurement": "Microalbumin (reduction of urinary excretion)", "setting": "5/6 nephrectomized rat; [2]", "result": "35.9±12.0", "unit": "%"}, {"measurement": "Serum creatinine (reduction)", "setting": "5/6 nephrectomized rat; [2]", "result": "14.9±3.2", "unit": "%"}, {"measurement": "Serum urea (reduction)", "setting": "5/6 nephrectomized rat; [2]", "result": "15.9±8.8", "unit": "%"}]}]}
